{"source": "patent US8461305B2", "about": "“L-fucose α1→6 specific lectin” (J-Oil Mills, Inc., priority 2008, dated 2013)", "experiment": "frontal affinity chromatography (FAC), association constant to PA sugar chains without L-fucose", "assay_type": "binding", "details": "for association constant Ka: 25 degrees C.", "method_in_brief": "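Lectin coupled via primary amines to NHS-activated sepharose in a miniature column, run in TBS (pH 7.4) at 0.125 ml/min and 25 degrees C. PA sugar chains (3.75 nM or 7.5 nM) applied in excess, with elution monitored by fluorescence (ex 310/em 380 nm). Ka calculated from front-end delay (V−Vo) versus PA rhamnose and effective ligand amount (Bt).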", "data": [{"substance": "Stropharia rugosoannulata lectin [SRL, novel L-fucose α1→6 specific lectin purified from the mushroom Stropharia rugosoannulata]", "values": [{"measurement": "binding to sugar chain not having L-fucose", "setting": "FAC", "value": "not bound"}, {"measurement": "association constant Ka", "setting": "Sugar chain No. 001", "value": "<1000", "unit": "M⁻¹"}, {"measurement": "association constant Ka", "setting": "Sugar chain No. 002", "value": "<1000", "unit": "M⁻¹"}, {"measurement": "association constant Ka", "setting": "Sugar chain No. 003", "value": "<1000", "unit": "M⁻¹"}, {"measurement": "association constant Ka", "setting": "Sugar chain No. 004", "value": "<1000", "unit": "M⁻¹"}, {"measurement": "association constant Ka", "setting": "Sugar chain No. 005", "value": "<1000", "unit": "M⁻¹"}, {"measurement": "association constant Ka", "setting": "Sugar chain No. 006", "value": "<1000", "unit": "M⁻¹"}, {"measurement": "association constant Ka", "setting": "Sugar chain No. 007", "value": "<1000", "unit": "M⁻¹"}, {"measurement": "association constant Ka", "setting": "Sugar chain No. 008", "value": "<1000", "unit": "M⁻¹"}, {"measurement": "association constant Ka", "setting": "Sugar chain No. 009", "value": "<1000", "unit": "M⁻¹"}, {"measurement": "association constant Ka", "setting": "Sugar chain No. 010", "value": "<1000", "unit": "M⁻¹"}, {"measurement": "association constant Ka", "setting": "Sugar chain No. 011", "value": "<1000", "unit": "M⁻¹"}, {"measurement": "association constant Ka", "setting": "Sugar chain No. 012", "value": "<1000", "unit": "M⁻¹"}, {"measurement": "association constant Ka", "setting": "Sugar chain No. 013", "value": "<1000", "unit": "M⁻¹"}, {"measurement": "association constant Ka", "setting": "Sugar chain No. 014", "value": "<1000", "unit": "M⁻¹"}, {"measurement": "association constant Ka", "setting": "Sugar chain No. 101", "value": "<1000", "unit": "M⁻¹"}, {"measurement": "association constant Ka", "setting": "Sugar chain No. 103", "value": "<1000", "unit": "M⁻¹"}, {"measurement": "association constant Ka", "setting": "Sugar chain No. 104", "value": "<1000", "unit": "M⁻¹"}, {"measurement": "association constant Ka", "setting": "Sugar chain No. 105", "value": "<1000", "unit": "M⁻¹"}, {"measurement": "association constant Ka", "setting": "Sugar chain No. 107", "value": "<1000", "unit": "M⁻¹"}, {"measurement": "association constant Ka", "setting": "Sugar chain No. 108", "value": "<1000", "unit": "M⁻¹"}, {"measurement": "association constant Ka", "setting": "Sugar chain No. 301", "value": "<1000", "unit": "M⁻¹"}, {"measurement": "association constant Ka", "setting": "Sugar chain No. 304", "value": "<1000", "unit": "M⁻¹"}, {"measurement": "association constant Ka", "setting": "Sugar chain No. 305", "value": "<1000", "unit": "M⁻¹"}, {"measurement": "association constant Ka", "setting": "Sugar chain No. 307", "value": "<1000", "unit": "M⁻¹"}, {"measurement": "association constant Ka", "setting": "Sugar chain No. 308", "value": "<1000", "unit": "M⁻¹"}, {"measurement": "association constant Ka", "setting": "Sugar chain No. 313", "value": "<1000", "unit": "M⁻¹"}, {"measurement": "association constant Ka", "setting": "Sugar chain No. 314", "value": "<1000", "unit": "M⁻¹"}, {"measurement": "association constant Ka", "setting": "Sugar chain No. 323", "value": "<1000", "unit": "M⁻¹"}, {"measurement": "association constant Ka", "setting": "Sugar chain No. 501", "value": "<1000", "unit": "M⁻¹"}, {"measurement": "association constant Ka", "setting": "Sugar chain No. 502", "value": "<1000", "unit": "M⁻¹"}, {"measurement": "association constant Ka", "setting": "Sugar chain No. 503", "value": "<1000", "unit": "M⁻¹"}, {"measurement": "association constant Ka", "setting": "Sugar chain No. 504", "value": "<1000", "unit": "M⁻¹"}, {"measurement": "association constant Ka", "setting": "Sugar chain No. 701", "value": "<1000", "unit": "M⁻¹"}, {"measurement": "association constant Ka", "setting": "Sugar chain No. 702", "value": "<1000", "unit": "M⁻¹"}, {"measurement": "association constant Ka", "setting": "Sugar chain No. 703", "value": "<1000", "unit": "M⁻¹"}, {"measurement": "association constant Ka", "setting": "Sugar chain No. 704", "value": "<1000", "unit": "M⁻¹"}, {"measurement": "association constant Ka", "setting": "Sugar chain No. 705", "value": "<1000", "unit": "M⁻¹"}, {"measurement": "association constant Ka", "setting": "Sugar chain No. 706", "value": "<1000", "unit": "M⁻¹"}, {"measurement": "association constant Ka", "setting": "Sugar chain No. 707", "value": "<1000", "unit": "M⁻¹"}, {"measurement": "association constant Ka", "setting": "Sugar chain No. 708", "value": "<1000", "unit": "M⁻¹"}, {"measurement": "association constant Ka", "setting": "Sugar chain No. 709", "value": "<1000", "unit": "M⁻¹"}, {"measurement": "association constant Ka", "setting": "Sugar chain No. 710", "value": "<1000", "unit": "M⁻¹"}, {"measurement": "association constant Ka", "setting": "Sugar chain No. 711", "value": "<1000", "unit": "M⁻¹"}, {"measurement": "association constant Ka", "setting": "Sugar chain No. 712", "value": "<1000", "unit": "M⁻¹"}, {"measurement": "association constant Ka", "setting": "Sugar chain No. 713", "value": "<1000", "unit": "M⁻¹"}, {"measurement": "association constant Ka", "setting": "Sugar chain No. 715", "value": "<1000", "unit": "M⁻¹"}, {"measurement": "association constant Ka", "setting": "Sugar chain No. 716", "value": "<1000", "unit": "M⁻¹"}, {"measurement": "association constant Ka", "setting": "Sugar chain No. 717", "value": "<1000", "unit": "M⁻¹"}, {"measurement": "association constant Ka", "setting": "Sugar chain No. 724", "value": "<1000", "unit": "M⁻¹"}, {"measurement": "association constant Ka", "setting": "Sugar chain No. 725", "value": "<1000", "unit": "M⁻¹"}, {"measurement": "association constant Ka", "setting": "Sugar chain No. 728 (as listed in Table 7)", "value": "<1000", "unit": "M⁻¹"}, {"measurement": "association constant Ka", "setting": "Sugar chain No. 732", "value": "<1000", "unit": "M⁻¹"}, {"measurement": "association constant Ka", "setting": "Sugar chain No. 733", "value": "<1000", "unit": "M⁻¹"}, {"measurement": "association constant Ka", "setting": "Sugar chain No. 734", "value": "<1000", "unit": "M⁻¹"}, {"measurement": "association constant Ka", "setting": "Sugar chain No. 735", "value": "<1000", "unit": "M⁻¹"}, {"measurement": "association constant Ka", "setting": "Sugar chain No. 736", "value": "<1000", "unit": "M⁻¹"}, {"measurement": "association constant Ka", "setting": "Sugar chain No. 737", "value": "<1000", "unit": "M⁻¹"}, {"measurement": "association constant Ka", "setting": "Sugar chain No. 738", "value": "<1000", "unit": "M⁻¹"}, {"measurement": "association constant Ka", "setting": "Sugar chain No. 901", "value": "<1000", "unit": "M⁻¹"}, {"measurement": "association constant Ka", "setting": "Sugar chain No. 902", "value": "<1000", "unit": "M⁻¹"}, {"measurement": "association constant Ka", "setting": "Sugar chain No. 903", "value": "<1000", "unit": "M⁻¹"}, {"measurement": "association constant Ka", "setting": "Sugar chain No. 905", "value": "<1000", "unit": "M⁻¹"}, {"measurement": "association constant Ka", "setting": "Sugar chain No. 906", "value": "<1000", "unit": "M⁻¹"}, {"measurement": "association constant Ka", "setting": "Sugar chain No. 907", "value": "<1000", "unit": "M⁻¹"}]}]}
